This note sets out measurements from publication PMC8151276, “An Integrated Approach toward NanoBRET Tracers for Analysis of GPCR Ligand Engagement” (Molecules, 2021).

Common to all, as to format: binding
The target of test [1] is T1, CNR1 (Homo sapiens, UniProt P21554).
T1 construct: purchased Promega (in-house HiBiT-GPCR construct library, NanoBRET)
The test is described as follows: NanoBRET screen HiBiT-CNR1 in HEK293. The protocol:
(§1) Each tracer candidate was screened across the entire library of HiBiT-GPCR constructs using NanoBRET as the detection modality. As depicted in Figure 4A, the specificity of interactions was evaluated through decrease in BRET due to competitive displacement of a bound tracer by excess parental compound. Each tracer was analyzed for binding to each HiBiT-GPCR fusion in the absence and in the presence of competing parental compound. Briefly, HEK293 cells were transfected with HiBiT-GPCR constructs diluted into promoterless DNA to reduce expression and maximize translocation to the cell surface. Each tracer candidate was then screened at concentrations of 1 μM and 0.1 μM across cells expressing these fusions. Cells were treated for 1.5 h with tracer either alone or in the presence of 20 μM competing parental compound (i.e., control). BRET was measured upon addition of purified LgBiT and subsequent complementation with HiBiT genetically fused to a GPCR. The specificity of interactions was assessed through a decrease in BRET signal due to competitive displacement of the bound tracer. To further gauge the robustness of these interactions, the fold response over the control (i.e., BRETtracer/BRETcontrol) was calculated. We chose a 1.5-fold response, which translates to ≥7-fold signal over noise as the minimal threshold required to score an interaction as positive. […]. Below we highlight the screening results obtained for our exemplary fluorescent tracers based on Clozapine, Amitriptyline and AZD1283.
(§2) HiBiT-GPCR DNA constructs were diluted in 10 mM Tris pH 8 to a final concentration of 0.01 μg/μL, arrayed in 96-well plates and stored at −20 °C. For transfection, HEK293 cells were suspended in Opti-MEM (without phenol red) supplemented with 2% fetal bovine serum (Seradigm) and 100 units/mL penicillin–streptomycin (Gibco) at a final concentration of 220,000 cells/mL and dispensed into white 96-well plates at 90 μL/well. Subsequent transfections and screens were carried using an Agilent Bravo Automated Liquid Handling Platform. First, the 96-well HiBiT DNA arrays were diluted 25-fold in Opti-MEM (without serum or phenol red) to a final concentration of 0.0004 μg/μL and 20 μL of the diluted DNAs were transferred into new 96-well plates. Next, promoterless carrier DNA (1 μg/μL) was diluted 25-fold (0.04 μg/μL) and then dispensed into the diluted arrays at 20 μL/well. Following brief mixing, Viafect transfection reagent (Promega) diluted 16-fold into Opti-MEM was dispensed into the plates at 40 μL/well. After mixing by pipetting, plates were incubated for 10 min on the pipetting station deck. The DNA-transfection reagent complexes were then added to plates containing cells. To facilitate the screen, 10 μL of DNA-transfection reagent complexes were added in duplicates to the top 4 and bottom 4 rows, resulting in two identical 48-well arrays per plate. Plates with transfected cells were incubated for 18–20 h at 37 °C/5% CO2. A screen of each tracer across the entire library using two different concentrations requires duplicate plates of transfected cells. Depending on the number of tracers being screened, transfections can be scaled up using the same ratios. The next day, for each tracer, four 20× screening solutions in tracer dilution buffer (Promega) were prepared: two duplicates at final concentration of 20 μM and two duplicates at a final concentration of 2 μM. A competing unmodified compound was added to one of each duplicate at a final concentration of 400 μM. The four resulting solutions were diluted 4-fold in Opti-MEM without serum or phenol red to generate 5× solutions (5 µM and 0.5 µM tracer +/− 100 μM competing compound). To screen the library, a BioTek MultiFlo FX liquid dispenser was used to dispense 22.5 µL of tracer solution to the top 4 rows and 22.5 µL tracer + competing compound solution to the 4 bottom rows. Plates were briefly mixed on an orbital shaker and incubated for 1.5 h at room temperature. […]
(In BRET a luciferase serves as donor, and the signal depends on an acceptor being close.)

In test [2] the target is T2, P2RY6 (Homo sapiens, UniProt Q15077).
T2 construct: purchased Promega (in-house HiBiT-GPCR construct library, NanoBRET)
T2 sequence (Q15077 whole entry): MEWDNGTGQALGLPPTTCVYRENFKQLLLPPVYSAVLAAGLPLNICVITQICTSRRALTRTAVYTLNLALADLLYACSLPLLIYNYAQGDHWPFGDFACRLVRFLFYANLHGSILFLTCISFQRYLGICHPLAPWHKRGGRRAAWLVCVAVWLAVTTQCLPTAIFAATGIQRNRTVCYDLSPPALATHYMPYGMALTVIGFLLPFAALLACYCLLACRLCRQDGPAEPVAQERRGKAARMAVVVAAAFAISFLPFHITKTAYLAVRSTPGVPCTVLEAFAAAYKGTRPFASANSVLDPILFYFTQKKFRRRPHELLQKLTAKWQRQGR
The test is described as follows: NanoBRET screen HiBiT-P2RY6 in HEK293. The procedure:
as §1, §2

Test [3] concerns the target T3, PTGDR (Homo sapiens, UniProt Q13258).
T3 construct: purchased Promega (in-house HiBiT-GPCR construct library, NanoBRET)
T3 sequence (Q13258 1-359): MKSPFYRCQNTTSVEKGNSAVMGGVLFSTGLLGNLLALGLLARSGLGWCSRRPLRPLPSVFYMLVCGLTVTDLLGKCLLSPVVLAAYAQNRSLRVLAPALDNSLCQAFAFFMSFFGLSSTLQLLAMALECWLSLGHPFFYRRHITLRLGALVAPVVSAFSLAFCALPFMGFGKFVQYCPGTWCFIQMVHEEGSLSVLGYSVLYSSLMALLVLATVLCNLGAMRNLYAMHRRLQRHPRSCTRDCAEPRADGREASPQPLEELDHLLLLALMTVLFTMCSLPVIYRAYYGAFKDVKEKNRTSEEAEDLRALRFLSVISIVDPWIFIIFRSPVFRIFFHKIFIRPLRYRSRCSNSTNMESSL
The test can be described thus: NanoBRET screen HiBiT-PTGDR in HEK293. The protocol:
as §1, §2

T1 sequence (P21554 whole entry): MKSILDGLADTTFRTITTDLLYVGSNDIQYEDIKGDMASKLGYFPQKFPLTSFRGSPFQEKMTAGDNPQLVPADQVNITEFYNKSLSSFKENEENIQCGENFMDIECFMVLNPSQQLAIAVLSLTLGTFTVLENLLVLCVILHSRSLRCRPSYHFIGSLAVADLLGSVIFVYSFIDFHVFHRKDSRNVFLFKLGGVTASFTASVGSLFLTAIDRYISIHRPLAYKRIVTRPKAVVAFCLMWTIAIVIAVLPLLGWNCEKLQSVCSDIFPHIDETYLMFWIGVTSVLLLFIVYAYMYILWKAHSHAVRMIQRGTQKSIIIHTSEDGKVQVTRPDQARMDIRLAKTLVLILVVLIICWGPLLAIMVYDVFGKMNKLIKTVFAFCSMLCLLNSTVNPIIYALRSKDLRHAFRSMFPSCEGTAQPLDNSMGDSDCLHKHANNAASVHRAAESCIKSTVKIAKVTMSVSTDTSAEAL

On to `O=C(CCc1ccc2n1[B-](F)(F)[N+]1=C(c3ccc[nH]3)C=CC1=C2)NCc1ccc(C(=O)NCCOCCC(=O)N[C@@H]2CC[C@@]3(O)[C@H]4Cc5ccc(O)c6c5[C@@]3(CCN4CC3CC3)[C@H]2O6)cc1` [Naltrexone-3-NB590], for which the “NanoBRET Fold Response” value in test [1] (CNR1, tracer 0.1μM) was determined as 0.96; in test [1] (CNR1, tracer 1μM), 0.95; in test [2] (P2RY6, tracer 0.1μM), 0.84; in test [2] (P2RY6, tracer 1μM), 0.81; in test [3] (PTGDR, tracer 0.1μM), 0.85; in test [3] (PTGDR, tracer 1μM), 0.97.

Turning to `CN1CCN(C2=Nc3cc(Cl)ccc3N(CC(=O)NCCOCCOCCOCCOCCNC(=O)CCc3ccc4n3[B-](F)(F)[N+]3=C(c5ccc[nH]5)C=CC3=C4)c3ccccc32)CC1` [Clozapine-c-2-NB590], the “NanoBRET Fold Response” value turned out to be 0.99 in test [1] (CNR1, 0.1μM tracer); 1.05 in test [1] (CNR1, 1μM tracer); 0.97 in test [2] (P2RY6, 0.1μM tracer); 0.98 in test [2] (P2RY6, 1μM tracer); 1.04 in test [3] (PTGDR, 0.1μM tracer); 1.07 in test [3] (PTGDR, 1μM tracer).

Consider `O=C(CCOCCOCCOCCOCCNC(=O)CCc1ccc2n1[B-](F)(F)[N+]1=C(c3ccc[nH]3)C=CC1=C2)NCCCN1CCN(C2=Nc3cc(Cl)ccc3Nc3ccccc32)CC1` [Clozapine-a-2-NB590], for which the “NanoBRET Fold Response” value in test [1] (CNR1, 0.1μM tracer) is 1.02; in test [1] (CNR1, 1μM tracer) it was 1.04; in test [2] (P2RY6, 0.1μM tracer), 1.02; in test [2] (P2RY6, 1μM tracer) it was 0.92; in test [3] (PTGDR, 0.1μM tracer), 1.10; in test [3] (PTGDR, 1μM tracer), 0.99.

With `CCOC(=O)c1cc(C#N)c(N2CCC(C(=O)NS(=O)(=O)Cc3ccccc3/C=C/C(=O)NCCNC(=O)CCc3ccc4n3[B-](F)(F)[N+]3=C(c5ccc[nH]5)C=CC3=C4)CC2)nc1C` [AZD1283-1-NB590], the “NanoBRET Fold Response” value is on record as 0.97 in test [1] (CNR1, 0.1μM); 0.51 in test [1] (CNR1, 1μM); 1.18 in test [2] (P2RY6, 0.1μM); 1.04 in test [2] (P2RY6, 1μM); 1.42 in test [3] (PTGDR, 0.1μM); 1.19 in test [3] (PTGDR, 1μM).

On to `COc1ccc2[nH]c(-c3ccc(CNC(=O)CCOCCOCCOCCOCCNC(=O)CCc4ccc5n4[B-](F)(F)[N+]4=C(c6ccc[nH]6)C=CC4=C5)cc3)c(CCNC(C)=O)c2n1` [AzomelatoninICO9-2-NB590], for which the “NanoBRET Fold Response” value came to 0.99 in test [1] (0.1μM tracer); 1.02 in test [1] (1μM tracer); 1.40 in test [2] (0.1μM tracer); 1.09 in test [2] (1μM tracer); 1.06 in test [3] (0.1μM tracer); 0.88 in test [3] (1μM tracer).

In the case of `CCCn1c(=O)c2[nH]c(-c3ccc(OCC(=O)NCCNC(=O)CCOCCNC(=O)c4ccc(CNC(=O)CCc5ccc6n5[B-](F)(F)[N+]5=C(c7ccc[nH]7)C=CC5=C6)cc4)cc3)nc2n(CCC)c1=O` [XAC-3-NB590], the “NanoBRET Fold Response” value in test [1] (CNR1, tracer 0.1μM) is reported as 1.01; in test [1] (CNR1, tracer 1μM) it was 1.00; in test [2] (P2RY6, tracer 0.1μM), 1.06; in test [2] (P2RY6, tracer 1μM), 1.12; in test [3] (PTGDR, tracer 0.1μM), 1.02; in test [3] (PTGDR, tracer 1μM), 1.06.

In the case of `COc1ccccc1N1CCN(CCCCN2C(=O)c3ccc(CNC(=O)CCOCCNC(=O)c4ccc(CNC(=O)CCc5ccc6n5[B-](F)(F)[N+]5=C(c7ccc[nH]7)C=CC5=C6)cc4)cc3C2=O)CC1` [NAN-190-3-NB590], the “NanoBRET Fold Response” value in test [1] (CNR1, tracer 0.1μM) amounted to 1.10; in test [1] (CNR1, tracer 1μM) it was 1.01; in test [2] (P2RY6, tracer 0.1μM) it was 1.10; in test [2] (P2RY6, tracer 1μM), 0.91; in test [3] (PTGDR, tracer 0.1μM) it was 0.96; in test [3] (PTGDR, tracer 1μM), 0.98.

Consider `O=C(CCc1ccc2n1[B-](F)(F)[N+]1=C(c3ccc[nH]3)C=CC1=C2)NCc1ccc(C(=O)NCCOCCOCCNCC(O)COc2cccc3ccccc23)cc1` (stereo not shown) [Propranolol-3-NB590], for which the “NanoBRET Fold Response” value in test [1] (CNR1, 0.1μM) was 0.99; in test [1] (CNR1, 1μM), 1.00; in test [2] (P2RY6, 0.1μM) it was 1.07; in test [2] (P2RY6, 1μM), 0.96; in test [3] (PTGDR, 0.1μM), 1.05; in test [3] (PTGDR, 1μM), 0.98.

`COc1ccc2c(n1)c(CCNC(C)=O)cn2CCNC(=O)CCc1ccc2n1[B-](F)(F)[N+]1=C(c3ccc[nH]3)C=CC1=C2` [Azamelatonin-1-NB590]: the “NanoBRET Fold Response” value in test [1] (0.1μM tracer) is on record as 1.01; in test [1] (1μM tracer), 0.95; in test [2] (0.1μM tracer), 1.01; in test [2] (1μM tracer), 1.01; in test [3] (0.1μM tracer), 1.13; in test [3] (1μM tracer), 1.18.

Turning to `O=C(CCOCCOCCOCCOCCNC(=O)CCc1ccc2n1[B-](F)(F)[N+]1=C(c3ccc[nH]3)C=CC1=C2)NCCCN1CCN(C2=Nc3ccccc3Oc3ccc(Cl)cc32)CC1` [Loxapine-a-2-NB590], the “NanoBRET Fold Response” value in test [1] (CNR1, tracer 0.1μM) is 0.72; in test [1] (CNR1, tracer 1μM), 0.29; in test [2] (P2RY6, tracer 0.1μM) it was 1.26; in test [2] (P2RY6, tracer 1μM), 0.94; in test [3] (PTGDR, tracer 0.1μM), 0.93; in test [3] (PTGDR, tracer 1μM), 0.98.

As to `COc1ccccc1N1CCN(CCCCN2C(=O)c3ccc(CNC(=O)CCOCCOCCOCCOCCNC(=O)CCc4ccc5n4[B-](F)(F)[N+]4=C(c6ccc[nH]6)C=CC4=C5)cc3C2=O)CC1` [NAN-190-2-NB590], the “NanoBRET Fold Response” value in test [1] (CNR1, tracer 0.1μM) came out at 1.02; in test [2] (P2RY6, tracer 0.1μM) it was 0.96; in test [2] (P2RY6, tracer 1μM), 1.17; in test [3] (PTGDR, tracer 0.1μM), 0.97; in test [3] (PTGDR, tracer 1μM), 1.01.

As for `CC(C)N(CC[C@H](c1ccccc1)c1cc(CCNC(=O)c2ccc(CNC(=O)CCc3ccc4n3[B-](F)(F)[N+]3=C(c5ccc[nH]5)C=CC3=C4)cc2)ccc1O)C(C)C` [Tolterodine-BZ-NB590], the “NanoBRET Fold Response” value in test [1] (CNR1, tracer 0.1μM) was 1.01; in test [1] (CNR1, tracer 1μM), 0.13; in test [2] (P2RY6, tracer 0.1μM), 1.03; in test [2] (P2RY6, tracer 1μM), 1.08; in test [3] (PTGDR, tracer 0.1μM) it was 1.03; in test [3] (PTGDR, tracer 1μM), 0.98.

Take `CN(C)CCC=C1c2ccccc2CCc2ccc(C(=O)NCCNC(=O)CCOCCOCCOCCOCCNC(=O)CCc3ccc4n3[B-](F)(F)[N+]3=C(c5ccc[nH]5)C=CC3=C4)cc21` [Amitriptyline-a-2-NB590]: the “NanoBRET Fold Response” value is 1.00 in test [2] (tracer at 0.1μM) and 0.94 in test [2] (tracer at 1μM).
